In US7964560B2, “Hepatitis C virus inhibitors” (Bristol-Myers Squibb Company, priority 2008, dated 2011):

How the values were obtained:
[1] = biological target: T1, HCV NS3/4A protease complex, BMS strain (UniProt P27958, species not given/STRAIN_BMS); assay: FRET peptide assay to monitor HCV NS3/4A proteolytic activity (BMS strain); assay type: biochemical, Hepatitis C virus (genotype 1a); conditions: Table 2, NS3/4A BMS strain, activity range
T1 construct: said of H77 and J4L6S; fused on or other part: three-lysine solubilising tail at the end of NS4A (printed for the H77 and J4L6S constructs; probably the same for BMS)
T1 sequence (P27958 1027-1657, change not shown, one chain of several): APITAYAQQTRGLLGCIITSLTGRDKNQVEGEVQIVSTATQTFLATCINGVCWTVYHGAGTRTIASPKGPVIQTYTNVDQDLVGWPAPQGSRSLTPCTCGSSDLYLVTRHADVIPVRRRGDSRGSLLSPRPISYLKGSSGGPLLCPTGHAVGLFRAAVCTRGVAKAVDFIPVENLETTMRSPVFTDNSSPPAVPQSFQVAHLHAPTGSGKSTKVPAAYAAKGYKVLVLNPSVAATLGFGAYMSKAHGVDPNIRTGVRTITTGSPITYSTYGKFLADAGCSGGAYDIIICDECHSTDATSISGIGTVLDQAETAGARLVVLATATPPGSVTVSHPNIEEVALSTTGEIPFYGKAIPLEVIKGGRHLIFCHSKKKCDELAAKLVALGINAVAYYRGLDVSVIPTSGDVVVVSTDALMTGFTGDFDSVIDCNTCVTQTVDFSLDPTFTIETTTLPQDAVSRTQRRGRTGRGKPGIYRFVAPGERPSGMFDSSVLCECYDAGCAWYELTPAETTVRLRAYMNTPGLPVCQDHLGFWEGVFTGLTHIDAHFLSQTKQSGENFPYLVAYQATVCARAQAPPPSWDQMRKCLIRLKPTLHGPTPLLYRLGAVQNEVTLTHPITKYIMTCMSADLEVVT
Text: HCV […] protease complexes, derived from the BMS strain, H77 strain or J4L6S strain, were generated, as described below. These purified recombinant proteins were generated for use in a homogeneous assay (see below) to provide an indication of how effective compounds of the present disclosure would be in inhibiting HCV NS3 proteolytic activity.
Serum from an HCV-infected patient was obtained from Dr. T. Wright, San Francisco Hospital. An engineered full-length cDNA (compliment deoxyribonucleic acid) template of the HCV genome (BMS strain) was constructed from DNA fragments obtained by reverse transcription-PCR (RT-PCR) of serum RNA (ribonucleic acid) and using primers selected on the basis of homology between other genotype 1a strains. From the determination of the entire genome sequence, a genotype 1a was assigned to the HCV isolate according to the classification of Simmonds et al. (See Simmonds, P. et al., J. Clin. Microbiol., 31(6), 1493-1503 (1993)). […] The infectious clones, H77 (1a genotype) and J4L6S (1b genotype) were obtained from R. Purcell (NIH) and the sequences are published in GENBANK® (AAB67036, see Yanagi, M. et al., Proc. Natl. Acad. Sci. U.S.A., 94(16):8738-8743 (1997); AF054247, see Yanagi, M. et al., Virology, 244(1):161-172 (1998)).
The H77 and J4L6S strains were used for production of recombinant NS3/4A protease complexes. DNA encoding the recombinant HCV NS3/4A protease complex (amino acids 1027 to 1711) for these strains were manipulated as described by P. Gallinari et al. (see Gallinari, P. et al, Biochemistry, 38(17):5620-5632 (1999)). Briefly, a three-lysine solubilizing tail was added at the 3′-end of the NS4A coding region. The cysteine in the P1 position of the NS4A-NS4B cleavage site (amino acid 1711) was changed to a glycine to avoid the proteolytic cleavage of the lysine tag. Furthermore, a cysteine to serine mutation was introduced by PCR at amino acid position 1454 to prevent the autolytic cleavage in the NS3 helicase domain. The variant DNA fragment was cloned in the pET21b bacterial expression vector (Novagen) and the NS3/4A complex was expressed in Escherichia. coli strain BL21 (DE3) (Invitrogen) following the protocol described by P. Gallinari et al. (see Gallinari, P. et al., J. Virol., 72(8):6758-6769 (1998)) with modifications. Briefly, the NS3/4A protease complex expression was induced with 0.5 millimolar (mM) Isopropyl β-D-1-thiogalactopyranoside (IPTG) for 22 hours (h) at 20° C. A typical fermentation (1 Liter (L)) yielded approximately 10 grams (g) of wet cell paste. The cells were resuspended in lysis buffer (10 mL/g) consisting of 25 mM N-(2-hydroxyethyl)piperazine-N′-(2-ethane sulfonic acid) (HEPES), pH 7.5, 20% glycerol, 500 mM sodium chloride (NaCl), 0.5% Triton X-100, 1 microgram/milliliter (“μg/mL”) lysozyme, 5 mM magnesium chloride (MgCl2), 1 μg/ml DnaseI, 5 mM β-mercaptoethanol (βME), protease inhibitor-ethylenediamine tetraacetic acid (EDTA) free (Roche), homogenized and incubated for 20 minutes (min) at 4° C. The homogenate was sonicated and clarified by ultra-centrifugation at 235000 g for 1 hour (h) at 4° C. Imidazole was added to the supernatant to a final concentration of 15 mM and the pH adjusted to 8.0. The crude protein extract was loaded on a Nickel-Nitrilotriacetic acid (Ni-NTA) column pre-equilibrated with buffer B (25 mM HEPES, pH 8.0, 20% glycerol, 500 mM NaCl, 0.5% Triton X-100, 15 mM imidazole, 5 mM βME). The sample was loaded at a flow rate of 1 mL/min. The column was washed with 15 column volumes of buffer C (same as buffer B except with 0.2% Triton X-100). The protein was eluted with 5 column volumes of buffer D (same as buffer C except with 200 mM Imidazole).
NS3/4A protease complex-containing fractions were pooled and loaded on a desalting column Superdex-S200 pre-equilibrated with buffer D (25 mM HEPES, pH 7.5, 20% glycerol, 300 mM NaCl, 0.2% Triton X-100, 10 mM βME). Sample was loaded at a flow rate of 1 mL/min. […]

[2] = system: HCV replicon in HUH-7 cells; assay: HCV replicon FRET assay; assay type: cell-based, Hepatitis C virus (strain 1b); conditions: Hepatitis C virus, Huh-7; Table 2, HCV replicon, activity range; replicon assay format not stated; read-out: EC50
Text: An HCV replicon whole cell system was established as described by Lohmann, V. et al., Science, 285(5424):110-113 (1999). This system enabled us to evaluate the effects of our HCV Protease compounds on HCV RNA replication. Briefly, using the HCV strain 1b sequence described in the Lohmann paper (Accession number: AJ238799), an HCV cDNA was synthesized by Operon Technologies, Inc. (Alameda, Calif.), and the full-length replicon was then assembled in plasmid pGem9zf(+) (Promega, Madison, Wis.) using standard molecular biology techniques. The replicon consists of (i) the HCV 5′ UTR fused to the first 12 amino acids of the capsid protein, (ii) the neomycin phosphotransferase gene (neo), (iii) the IRES from encephalomyocarditis virus (EMCV), and (iv) HCV NS3 to NS5B genes and the HCV 3′ UTR. Plasmid DNAs were linearized with ScaI and RNA transcripts were synthesized in vitro using the T7 MegaScript transcription kit (Ambion, Austin, Tex.) according to manufacturer's directions. In vitro transcripts of the cDNA were transfected into the human hepatoma cell line, HUH-7. […] Resulting cell lines were characterized for positive and negative strand RNA production and protein production over time.
The HCV replicon FRET assay was developed to monitor the inhibitory effects of compounds described in the disclosure on HCV viral replication. HUH-7 cells, constitutively expressing the HCV replicon, were grown in Dulbecco's Modified Eagle Media (DMEM) (Gibco-BRL) containing 10% Fetal calf serum (FCS) (Sigma) and 1 mg/ml G418 (Gibco-BRL). Cells were seeded the night before (1.5×10^4 cells/well) in 96-well tissue-culture sterile plates. Compound and no compound controls were prepared in DMEM containing 4% FCS, 1:100 Penicillin/Streptomysin (Gibco-BRL), 1:100 L-glutamine and 5% DMSO in the dilution plate (0.5% DMSO final concentration in the assay). Compound/DMSO mixes were added to the cells and incubated for 4 days at 37° C. After 4 days, cells were first assessed for cytotoxicity using alamar Blue (Trek Diagnostic Systems) for a CC50 reading. The toxicity of compound (CC50) was determined by adding 1/10th volume of alamar Blue to the media incubating the cells. After 4 h, the fluorescence signal from each well was read, with an excitation wavelength at 530 nm and an emission wavelength of 580 nm, using the CYTOFLUOR® Series 4000 (Perspective Biosystems). Plates were then rinsed thoroughly with Phosphate-Buffered Saline (PBS) (3 times 150 μl). The cells were lysed with 25 μl of a lysis assay reagent containing an HCV protease substrate (5× cell Luciferase cell culture lysis reagent (PROMEGA® #E153A) diluted to 1× with distilled water, NaCl added to 150 mM final, the FRET peptide substrate (as described for the enzyme assay above) diluted to 10 μM final from a 2 mM stock in 100% DMSO. The plate was then placed into the CYTOFLUOR® 4000 instrument which had been set to 340 nm excitation/490 nm emission, automatic mode for 21 cycles and the plate read in a kinetic mode. EC50 determinations were carried out as described for the IC50 determinations.

Q: C=C[C@@H]1C[C@]1(NC(=O)[C@@H]1C[C@@](SC(C)C)(c2ccc(-c3ccccc3)cc2)CN1C(=O)[C@@H](NC(=O)OC1(C)CCCC1)C(C)(C)C)C(=O)NS(=O)(=O)C1CC1 [Example 11, 1-methylcyclopentyl (S)-1-((2S,4R)-4-(biphenyl-4-yl)-2-((1R,2S)-1-(cyclopropylsulfonylcarbamoyl)-2-vinylcyclopropylcarbamoyl)-4-(isopropylthio)pyrrolidin-1-yl)-3,3-dimethyl-1-oxobutan-2-ylcarbamate] was tested. Which IC50 [1] did it give?
A: The IC50 was 1 to 20 nM.

Q: What about the EC50 [2] of the same compound?
A: Its EC50 is 6 to 100 nM.

Q: What does the source list for C=CCS[C@@]1(c2ccc(-c3ccccc3)cc2)C[C@@H](C(=O)N[C@]2(C(=O)NS(=O)(=O)C3CC3)C[C@H]2C=C)N(C(=O)[C@@H](NC(=O)OC(C)(C)C)C(C)(C)C)C1 [Example 12, tert-butyl (S)-1-((2S,4R)-4-(allylthio)-4-(biphenyl-4-yl)-2-((1R,2S)-1-(cyclopropylsulfonylcarbamoyl)-2-vinylcyclopropylcarbamoyl)pyrrolidin-1-yl)-3,3-dimethyl-1-oxobutan-2-ylcarbamate]?
A: IC50 [1]: 1 to 20 nM; EC50 [2]: 6 to 100 nM
